Consider two compounds from patent US20020002172A1, “PHARMACEUTICAL FORMULATIONS” (priority 1998, published 2002).

Structures can show the parent of a compound that is named as a salt.

Series [1] can be described thus: solubility of sildenafil forms in water. It counts as physicochemical.
The nature of a further series: solubility in saliva. The series is classed as physicochemical.

`CCCc1nn(C)c2c(=O)[nH]c(-c3cc(S(=O)(=O)N4CCN(C)CC4)ccc3OCC)nc12` [sildenafil citrate]: the “solubility of salt form” value in series [1] (medium not stated) is given as “highly soluble”. On to `CCCc1nn(C)c2c(=O)[nH]c(-c3cc(S(=O)(=O)N4CCN(C)CC4)ccc3OCC)nc12` [sildenafil free base, 5-[2-ethoxy-5-(4-methylpiperazin-1-ylsulphonyl)-phenyl] -1,6-dihydro-1-methyl-3-propylpyrazolo [4,3-d]pyrimidin-7-one], for which the solubility in water result in series [1] (water) was “extremely low solubility”. For the same compound, the solubility in saliva result in “solubility in saliva” is given as “extremely low solubility”.
